Source: ChEMBL document CHEMBL2380305, “Discovery of thiazolobenzoxepin PI3-kinase inhibitors that spare the PI3-kinase β isoform” (Bioorg Med Chem Lett, 2013)

Key:
[1] = Plasma clearance in dog; format: ADME, organism-based, Canis lupus familiaris
in vivo [2] = conditions: nude, mouse, plasma, iv, 1 mg/kg
in vivo [3] = conditions: Sprague-Dawley, rat, plasma, iv, 1 mg/kg
Rattus norvegicus = test: Unbound plasma clearance in Sprague-Dawley rat at 1 mg/kg, iv; format: ADME, organism-based; set-up: dose 1 mg/kg, route intravenous; conditions: in vivo
[4] = Apparent permeability across apical to basolateral side in MDCK cells; format: ADME, cell-based, Canis lupus familiaris; conditions: dog
[5] = Oral bioavailability in Beagle dog at 2 mg/kg; format: ADME, organism-based, Canis lupus familiaris; conditions: in vivo
[6] = Oral bioavailability in nude mouse at 25 mg/kg; format: ADME, organism-based; conditions: in vivo
[7] = Plasma clearance in Beagle dog at 1 mg/kg, iv; format: ADME, organism-based, Canis lupus familiaris; set-up: dose 1 mg/kg, route intravenous
[8] = Oral bioavailability in Sprague-Dawley rat at 5 mg/kg; format: ADME, organism-based; conditions: in vivo

clearance (in vivo [2]) [mL/min/kg] | clearance (in vivo [3]) [mL/min/kg] | Structure (SMILES) | further results
 |  | CC(C)n1ncnc1-c1cc2c(s1)-c1ccc(C(N)=O)cc1OCC2 | clearance [1]: 100 mL/min/kg
132 | 128 | CC(C)n1ncnc1-c1nc2c(s1)CCOc1cc(C3CN(CCO)C3)ccc1-2 | 
165 | 57 | CC(C)n1ncnc1-c1nc2c(s1)CCOc1cc(C3CN(C[C@H](O)CO)C3)ccc1-2 | 
170 | 163 | CC(C)n1ncnc1-c1nc2c(s1)CCOc1cc(C3CN(CC(C)(C)O)C3)ccc1-2 | 
 | 60 | CC(C)n1ncnc1-c1nc2c(s1)CCOc1cc(C3CN(C(=O)C(C)(C)N)C3)ccc1-2 | CL free (Rattus norvegicus): 1153 mL/min/kg
104 | 55 | CC(C)n1ncnc1-c1nc2c(s1)CCOc1cc(C3CN(C(C)(C)C(N)=O)C3)ccc1-2 | 
9.5 | 5.4 | CC(C)n1ncnc1-c1nc2c(s1)CCOc1cc(-c3cnn(CCO)c3)ccc1-2 | Papp A→B [4]: 16 ×10⁻⁶ cm/s; bioavailability [5]: 22%; bioavailability [6]: 110%; clearance [7]: 14 mL/min/kg; bioavailability [8]: 83%
3.1 | 6.8 | CC(C)n1ncnc1-c1nc2c(s1)CCOc1cc(-c3cnn(CC(C)(C)O)c3)ccc1-2 | 
3.2 | 6.1 | CC(C)n1ncnc1-c1nc2c(s1)CCOc1cc(-c3cnn(CS(C)(=O)=O)c3)ccc1-2 | 
13.4 | 10 | CC(C)n1ncnc1-c1nc2c(s1)CCOc1cc(-c3cnn(C(C)(C)C(N)=O)c3)ccc1-2 | CL free (Rattus norvegicus): 625 mL/min/kg
2.2 | 1.9 | Cc1nc(-c2nc3c(s2)CCOc2cc(-c4cnn(CCO)c4)ccc2-3)n(C(C)C)n1 | 
4 | 55 | CC(C)n1nc(N)nc1-c1nc2c(s1)CCOc1cc(-c3cnn(CC(C)(C)O)c3)ccc1-2 | 
22 | 84 | CC(C)n1c(-c2nc3c(s2)CCOc2cc(-c4cnn(CC(C)(C)O)c4)ccc2-3)n[nH]c1=O | 
